{"source": "paper PMC8878317", "about": "“Chemogenomics identifies acetyl-coenzyme A synthetase as a target for malaria treatment and prevention” (Cell Chemical Biology, 2022)", "key": {"PfAcAS T648M": {"target": "T1, PfAcAS T648M (Plasmodium falciparum, UniProt C6KTB4, T648M)", "T1 sequence (C6KTB4 1-997 T648M)": "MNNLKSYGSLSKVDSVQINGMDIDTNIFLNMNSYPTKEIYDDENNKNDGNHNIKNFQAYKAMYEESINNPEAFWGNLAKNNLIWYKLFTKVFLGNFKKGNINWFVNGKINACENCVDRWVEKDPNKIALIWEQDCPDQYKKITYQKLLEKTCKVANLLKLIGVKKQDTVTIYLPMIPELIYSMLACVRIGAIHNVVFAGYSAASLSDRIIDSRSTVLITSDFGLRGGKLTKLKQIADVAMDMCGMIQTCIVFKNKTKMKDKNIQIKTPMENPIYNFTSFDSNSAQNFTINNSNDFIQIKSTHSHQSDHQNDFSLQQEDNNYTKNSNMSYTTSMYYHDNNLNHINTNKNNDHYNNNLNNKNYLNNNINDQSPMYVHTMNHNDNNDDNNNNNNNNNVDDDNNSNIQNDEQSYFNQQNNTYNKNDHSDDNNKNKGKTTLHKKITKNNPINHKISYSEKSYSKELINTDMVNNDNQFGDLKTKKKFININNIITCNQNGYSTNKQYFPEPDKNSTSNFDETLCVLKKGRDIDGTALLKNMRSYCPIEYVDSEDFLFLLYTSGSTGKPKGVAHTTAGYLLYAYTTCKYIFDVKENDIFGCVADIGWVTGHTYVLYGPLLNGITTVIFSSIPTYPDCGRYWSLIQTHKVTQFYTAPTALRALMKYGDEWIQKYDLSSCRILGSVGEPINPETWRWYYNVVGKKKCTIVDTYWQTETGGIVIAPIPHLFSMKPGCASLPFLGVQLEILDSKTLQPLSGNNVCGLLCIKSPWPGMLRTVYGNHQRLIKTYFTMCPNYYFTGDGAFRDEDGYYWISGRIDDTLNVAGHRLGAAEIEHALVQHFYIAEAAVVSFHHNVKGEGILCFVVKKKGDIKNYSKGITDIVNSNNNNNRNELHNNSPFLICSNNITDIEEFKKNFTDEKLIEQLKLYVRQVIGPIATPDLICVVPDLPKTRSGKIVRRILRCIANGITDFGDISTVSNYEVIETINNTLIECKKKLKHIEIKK", "test": "EnzChek assay, recombinant PfAcAS T648M", "format": "biochemical, P. falciparum", "conditions": "substrate varied, other two saturating", "protocol": "(§1) Steady-state kinetic measurements were conducted at room temperature using a PheraStar plate reader (BMG). The first step of the reaction of PfAcAS, which produces inorganic pyrophosphate (PPi) that is converted to two molecules of inorganic phosphate using a pyrophosphatase enzyme, was continuously monitored using the EnzChek Phosphate Assay Kit, which gives an absorbance readout at 360 nm (Figure 4A) ([Webb, 1992]). […] By adding CoA, the reaction rapidly proceeds to the second step resulting in further release of pyrophosphate, making the EnzChek assay a suitable option to continuously monitor the activity of PfAcAS. Typical kinetic assays were carried out in clear, flat-bottom, polystyrene, 384-well plates (Greiner) in an 80 μL reaction volume containing 100 mM HEPES (pH7.4), 100 mM NaCl, 250 mM KCl, 50 mM MgCl2, 1 mM DTT, 0.004% Tween 20, 0.5 U/mL pyrophosphatase, 0.1 mM MESG, 0.5 U/mL PNP, 2 mM ATP, 2 mM acetate, 0.5 mM CoA and 5 nM recombinant PfAcAS WT or 10 nM recombinant PfAcAS A597V or T648M. Assays were performed by adding 40 μL of a 2-times concentrated substrate mixture including MESG to all wells, and the reactions started by adding 40 μL of a 2-times concentrated reaction mixture containing all other components. The reactions were carried out for 2 to 4 hr with absorbance readings at 360 nm every two to four minutes. Reaction rates were extracted from the linear phase of activity, usually using 10 to 20 points between times of 30 and 100 min of the reactions. Using a phosphate standard curve obtained under the same buffer conditions used for the PfAcAS reactions (Figure S5A), the rates were then converted to velocity per second, conversion of one nanomolar of phosphate, per nanomolar of enzyme, per second. The substrates Km values were determined by varying the concentration of one of the substrates at saturating concentration of the other two substrates. Steady-state data were fitted using the nonlinear, least-squares, curve-fitting programs of Sigma-Plot for Windows, version 14.0. Individual saturation curves were fit to Equation 1(Equation 1) v=VS/K+S where V is the maximal velocity, S is the substrate concentration and K is the Michaelis constant for the substrate (Km). Individual saturation curves displaying substrate inhibition were fit to Equation 2(Equation 2) v=VS/K+S×(1+S/Ks) where Ks is the substrate inhibition constant.\n(§2) To determine the steady-state inhibition parameters and patterns associated with both inhibitors, PfAcAS activity was studied in the presence of variable concentrations of one substrate, ATP, acetate or CoA, fixed saturating concentration of the other two substrates (acetate and CoA, ATP and CoA, or ATP and acetate) and several fixed concentrations of inhibitor. Assay ready plates containing different concentrations of inhibitor were prepared using an Echo 550 acoustic dispenser (Labcyte Inc.). The assays were carried out as described in the previous section. […] For better comparison between both inhibitors and proteins, the ymin was fixed to zero and the ymax to 100. Inhibition data showing linear, competitive patterns in double-reciprocal plots were fit to Equation 4(Equation 4) v=VS/K(1+I/Ki)+S where Ki is the dissociation constant for the enzyme-inhibitor complex. Inhibition data showing linear, mixed inhibition patterns in double-reciprocal plots were fit to Equation 5(Equation 5) v=VS/K(1+I/Kis)+S(1+I/Kii) where Kis is the dissociation constant for the free enzyme-inhibitor complex and Kii is the dissociation constant for the enzyme-substrate-inhibitor complex. Inhibition data showing linear, uncompetitive patterns in double-reciprocal plots were fit to Equation 6(Equation 6) v=VS/K+S(1+I/Ki)"}, "PfAcAS A597V": {"target": "T2, PfAcAS A597V (Plasmodium falciparum, UniProt C6KTB4, A597V)", "T2 sequence (C6KTB4 1-997 A597V)": "T1 sequence (C6KTB4 1-997 T648M)", "test": "EnzChek assay, recombinant PfAcAS A597V", "format": "biochemical, P. falciparum", "conditions": "substrate varied, other two saturating", "protocol": "as §1, §2"}, "PfAcAS WT": {"target": "PfAcAS WT (Plasmodium falciparum, UniProt C6KTB4)", "test": "EnzChek assay, recombinant PfAcAS WT (steady-state kinetics and IC50)", "format": "biochemical, P. falciparum", "protocol": "as §1, §2"}, "HsAcAS WT": {"target": "T3, HsAcAS WT (Homo sapiens, UniProt Q9NR19)", "T3 construct": "made in house; host or cells: Expi293 cells (pCDNA 3.1, transient transfection)", "test": "HsAcAS Rapid-Fire QQQ mass spectrometry assay", "format": "biochemical", "conditions": "for Km: read-out: Km (µM), HsWT", "protocol": "The human form of acetyl-CoA synthetase was assayed in 100 mM HEPES (pH7.4), 100 mM NaCl, 250 mM KCl, 50 mM MgCl2, 1 mM DTT, 0.005% NP40, 400 μM ATP, 70 μM acetate, 40 μM CoA and 2 nM recombinant HsAcAS. Assay ready plates containing different concentrations of inhibitor were prepared using an Echo 550 acoustic dispenser (Labcyte Inc.), dispensing 150 nL of compound per well. Assays were conducted in a total volume of 15 μL for 30 min at room temperature before being quenched with the addition of 85 μL 1% formic acid containing 0.5 μg/mL n-Propionyl coenzyme A (Sigma P5397) as an internal standard. Reaction products were detected using a RapidFire 365 system (Agilent, Santa Clara, CA) coupled with a triple quadrupole mass spectrometer 6740 (Agilent).\nThe sipper was washed to minimize carryover with 0.1% TFA in deionized water followed by 0.1% TFA in acetonitrile/deionized water (95%/5%, v/v). The sipper was washed to minimize carryover with deionized water followed by acetonitrile. Aspiration time, load/wash time, elution time, and re-equilibration time were set to 600, 3000, 5000, and 500 ms, respectively, with a cycle time of approximately 10 s. The triple-quadrupole mass spectrometer with electrospray ion source was operated in positive multiple reaction monitoring (MRM) mode. The detailed setting for the mass spectrometer parameters was as follows: capillary voltage, 3000 V; gas temperature, 350°C; gas flow, 7 L/min; nebulizer, 40 psi; sheath gas temperature, 300°C′ sheath gas flow, 11 L/min; and nozzle voltage, 1500 V. The MRM transitions for acetyl-CoA as a reaction product were set as 810.1/303.1 & 810.1/428.1 (quantifier & qualifier with dwell time of 50 ms, 100V fragmentor, and collision energies of 30 & 28 eV respectively) and for n-propionyl-CoA as an internal standard as 824.2/317.2 & 824.2/428.0 (quantifier & qualifier with dwell time of 50 ms, 100V fragmentor, and collision energies of 32 & 26 eV respectively). The mass resolution window for both parental and daughter ions was set at as a unit (0.7 Da). Peak areas were integrated, and area ratios of acetyl-CoA to the internal standard (n-propionyl CoA) were used for quantitation. Data were converted to % inhibition relative to the uninhibited enzyme control and fitted to Equation 3."}, "[1]": {"conditions": "substrate varied, other two saturating"}}, "data": [{"smiles": "Nc1ncnc2c1ncn2[C@@H]1O[C@H](COP(=O)(O)OP(=O)(O)OP(=O)(O)O)[C@@H](O)[C@H]1O", "note": "[ATP]", "values": [{"measurement": "Km", "setting": "PfAcAS T648M", "result": "400 ± 17", "unit": "µM"}, {"measurement": "Vmax (s-1), PfAcAS T648M", "setting": "PfAcAS T648M", "result": "1.9 ± 0.03", "unit": "s⁻¹"}, {"measurement": "Km", "setting": "PfAcAS A597V", "result": "140 ± 5", "unit": "µM"}, {"measurement": "Vmax (s-1), PfAcAS A597V", "setting": "PfAcAS A597V", "result": "0.54 ± 0.01", "unit": "s⁻¹"}, {"measurement": "Km", "setting": "PfAcAS WT; [1]", "result": 93, "unit": "µM"}, {"measurement": "Vmax (s-1), PfAcAS WT", "setting": "PfAcAS WT; [1]", "result": "2.4 ± 0.03", "unit": "s⁻¹"}]}, {"smiles": "CC(C)(COP(=O)(O)OP(=O)(O)OC[C@H]1O[C@@H](n2cnc3c(N)ncnc32)[C@H](O)[C@@H]1OP(=O)(O)O)[C@@H](O)C(=O)NCCC(=O)NCCS", "note": "[CoA]", "values": [{"measurement": "Km", "setting": "PfAcAS T648M", "result": "82 ± 6", "unit": "µM"}, {"measurement": "Km", "setting": "PfAcAS A597V", "result": "61 ± 6", "unit": "µM"}, {"measurement": "Vmax (s-1), PfAcAS A597V", "setting": "PfAcAS A597V", "result": "0.84 ± 0.05", "unit": "s⁻¹"}, {"measurement": "Km", "setting": "HsAcAS WT", "result": "36 ± 5", "unit": "µM"}, {"measurement": "Ki (µM), substrate inhibition, HsWT", "setting": "HsAcAS WT; substrate inhibition constant", "result": "1000 ± 190", "unit": "µM"}, {"measurement": "Ki (µM), substrate inhibition, PfAcAS WT", "setting": "PfAcAS WT; substrate inhibition constant", "result": "2700 ± 310", "unit": "µM"}, {"measurement": "Km", "setting": "PfAcAS WT; [1]", "result": 42, "unit": "µM"}]}, {"smiles": "CC(=O)O", "note": "[acetate]", "values": [{"measurement": "Km", "setting": "PfAcAS T648M", "result": "190 ± 8", "unit": "µM"}, {"measurement": "Km", "setting": "PfAcAS A597V", "result": "400 ± 12", "unit": "µM"}, {"measurement": "Vmax (s-1), PfAcAS A597V", "setting": "PfAcAS A597V", "result": "0.54 ± 0.05", "unit": "s⁻¹"}, {"measurement": "Km", "setting": "HsAcAS WT", "result": "61 ± 4", "unit": "µM"}, {"measurement": "Km", "setting": "PfAcAS WT; [1]", "result": 72, "unit": "µM"}]}]}
